Values joined by “and” are separate entries in the source; they are usually repeats but may differ in a detail not shown here. Equal values may be shown once. Active and inactive are the calls of the source.

Assay [1] is described as follows: A375 melanoma cell cytotoxicity, dose response, counter-screen for MITF inhibitor project, CellTiter-Glo luminescence, dry powder, set 2 (AID 624489).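 Note: actives are compounds lowering A375 viability meaning general cytotoxicity.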 The conditions noted are these: A-375. In kind it is functional, cell-based.
A short description of assay [2]: A375 melanoma cell viability loss, dose response, counter-screen for MITF inhibitor project, CellTiter-Glo luminescence, dry powder, set 4 (AID 624364).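 Note: A375 melanoma cells are MITF independent so this is a counter screen.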 In kind it is functional, cell-based. The conditions noted are these: A-375. (The purpose of a counterscreen is to sort out artefacts and off-target activity.)
Assay [3] is described as follows: T. cruzi growth inhibition in host cells, dose response, cell-based, plate reader, dry powder, set 2 (AID 652275). The assay is classed as functional.
Assay [4] has as its target 1-phosphatidylinositol 4,5-bisphosphate phosphodiesterase gamma-1 (Homo sapiens, UniProt P19174). The assay can be described thus: Counterscreen for inhibitors of phospholipase C isozymes (PLC-B3): Fluorescence-based biochemical high throughput dose response assay to identify inhibitors of phospholipase C isozymes (PLC-gamma1).
The target of assay [5] is 1-phosphatidylinositol 4,5-bisphosphate phosphodiesterase beta-3 (Homo sapiens, UniProt Q01970). The assay can be described thus: Fluorescence-based biochemical high throughput dose response assay to identify inhibitors of phospholipase C isozymes (PLC-B3).
1-phosphatidylinositol 4,5-bisphosphate phosphodiesterase beta-3, sequence (Q01970 whole entry, the tested form may be a part): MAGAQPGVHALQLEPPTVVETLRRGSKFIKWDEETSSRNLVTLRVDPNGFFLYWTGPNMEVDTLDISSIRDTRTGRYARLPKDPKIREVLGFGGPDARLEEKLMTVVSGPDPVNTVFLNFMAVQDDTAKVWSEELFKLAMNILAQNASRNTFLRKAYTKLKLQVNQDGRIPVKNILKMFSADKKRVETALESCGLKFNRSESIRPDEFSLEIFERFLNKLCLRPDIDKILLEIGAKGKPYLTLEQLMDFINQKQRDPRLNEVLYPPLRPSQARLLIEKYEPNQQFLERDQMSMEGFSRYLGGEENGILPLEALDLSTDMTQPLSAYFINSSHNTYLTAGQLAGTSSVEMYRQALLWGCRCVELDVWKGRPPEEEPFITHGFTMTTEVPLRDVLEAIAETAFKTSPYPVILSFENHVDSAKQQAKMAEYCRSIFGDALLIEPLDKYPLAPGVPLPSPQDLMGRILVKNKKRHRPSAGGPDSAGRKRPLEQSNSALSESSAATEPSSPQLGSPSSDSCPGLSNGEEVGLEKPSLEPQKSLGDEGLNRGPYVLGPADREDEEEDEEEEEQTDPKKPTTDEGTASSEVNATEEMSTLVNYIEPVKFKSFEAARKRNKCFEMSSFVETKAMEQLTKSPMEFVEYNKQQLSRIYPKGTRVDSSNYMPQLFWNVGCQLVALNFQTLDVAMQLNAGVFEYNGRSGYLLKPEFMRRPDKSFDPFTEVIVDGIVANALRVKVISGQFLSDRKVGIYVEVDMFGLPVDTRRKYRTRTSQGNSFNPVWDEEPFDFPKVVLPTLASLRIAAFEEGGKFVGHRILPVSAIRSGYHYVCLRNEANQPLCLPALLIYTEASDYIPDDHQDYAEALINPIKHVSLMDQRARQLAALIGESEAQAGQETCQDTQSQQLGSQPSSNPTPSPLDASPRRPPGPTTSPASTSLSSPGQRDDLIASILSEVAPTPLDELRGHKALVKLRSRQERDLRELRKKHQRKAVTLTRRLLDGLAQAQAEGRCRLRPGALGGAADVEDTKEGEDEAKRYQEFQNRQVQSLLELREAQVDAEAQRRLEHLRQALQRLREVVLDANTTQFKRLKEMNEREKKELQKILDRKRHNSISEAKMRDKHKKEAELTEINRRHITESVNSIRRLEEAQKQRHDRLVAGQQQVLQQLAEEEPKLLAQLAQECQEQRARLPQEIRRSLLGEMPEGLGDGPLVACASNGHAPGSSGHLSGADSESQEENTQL
Assay [6] addresses Disintegrin and metalloproteinase domain-containing protein 17 (Homo sapiens, UniProt P78536). The assay can be described thus: exosite inhibitors of ADAM17, dose response, biochemical (AID 743260).
A short description of assay [7]: ADAM10 protease inhibitors, dose response, selectivity assay for ADAM17 exosite inhibitor project, biochemical, FRET peptide substrate, recombinant human ADAM10 (AID 743259).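 Note: ADAM10 enzyme cleaving a FRET peptide substrate.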
Assay [8] concerns the target Paired box protein Pax-8 (Homo sapiens, UniProt Q06710). The assay can be described thus: inhibitors of PAX8-driven TPO luciferase reporter, dose response, RMG-I cells, cherry-pick (AID 687027).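 Note: luciferase reporter driven by Pax8 target thyroperoxidase promoter measured by SteadyGlo luminescence.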 The assay is classed as functional, cell-based. (In a reporter assay the amount or activity of a reporter protein is the signal.)
Assay [9] in a line: cytotoxicity dependent on PAX8, dose response, cell-based, plate reader, dry powder (AID 743049). The assay is classed as functional.
Assay [10] in a line: cytotoxicity in OVCAR8 ovarian cancer cells, dose response, PAX8 project, cell-based, plate reader, dry powder samples (AID 743197). The assay is classed as functional. The conditions noted are these: OVCAR-8.
The target in assay [11] is Kallikrein-7 (Homo sapiens, UniProt P49862). Put plainly: Fluorescence Intensity-based biochemical primary high throughput dose response assay to identify activators of kallikrein-7 (K7) zymogen.
Kallikrein-7, sequence (P49862 whole entry): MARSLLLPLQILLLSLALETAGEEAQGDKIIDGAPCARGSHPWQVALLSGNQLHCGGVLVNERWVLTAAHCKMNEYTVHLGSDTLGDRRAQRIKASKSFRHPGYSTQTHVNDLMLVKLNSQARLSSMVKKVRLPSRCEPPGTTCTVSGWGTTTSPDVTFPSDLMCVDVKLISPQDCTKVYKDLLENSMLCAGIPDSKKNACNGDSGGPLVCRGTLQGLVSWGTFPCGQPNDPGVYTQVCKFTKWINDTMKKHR
The target of assay [12] is T1, DNA repair protein RAD52 homolog (Homo sapiens, UniProt P43351).
T1 sequence (P43351 whole entry): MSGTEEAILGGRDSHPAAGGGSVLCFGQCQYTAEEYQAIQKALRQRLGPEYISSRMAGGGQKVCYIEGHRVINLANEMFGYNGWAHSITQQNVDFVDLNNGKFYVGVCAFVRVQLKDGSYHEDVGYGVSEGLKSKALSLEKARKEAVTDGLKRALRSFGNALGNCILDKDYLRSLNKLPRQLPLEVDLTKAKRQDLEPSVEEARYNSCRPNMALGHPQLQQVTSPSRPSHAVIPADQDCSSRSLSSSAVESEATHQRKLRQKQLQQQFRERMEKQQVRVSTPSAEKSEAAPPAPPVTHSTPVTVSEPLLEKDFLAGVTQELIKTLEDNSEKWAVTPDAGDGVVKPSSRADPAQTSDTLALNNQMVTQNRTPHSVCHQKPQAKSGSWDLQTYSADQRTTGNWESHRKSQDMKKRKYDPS
The assay is classed as functional, biochemical.

The nature of assay [13]: HepG2 cell cytotoxicity, dose response, cytotoxicity control, ATP luminescence, cherry-pick, activator set 2 (AID 1053143). The assay is classed as functional, cell-based.
The nature of assay [14]: cells. The conditions noted are these: HEK293.
Assay [15] is described as follows: cells.
A short description of assay [16]: cells. The conditions noted are these: A549.
The nature of assay [17]: HepG2 cell cytotoxicity, dose response, cytotoxicity control, ATP luminescence, cherry-pick, set 6 (AID 1053125). The assay is classed as functional, cell-based.
A short description of assay [18]: A549 cell cytotoxicity, dose response, cytotoxicity control, 24 h, CellTiter-Glo luminescence, cherry-picks (AID 1053115). The conditions noted are these: A549, 24 h. The assay is classed as functional, cell-based. Background: Cellular ATP, detected with luciferase, serves as a proxy for viable cell number.
Assay [19] deals with T2, High affinity choline transporter 1 (Homo sapiens, UniProt Q9GZV3).
T2 sequence (Q9GZV3 whole entry): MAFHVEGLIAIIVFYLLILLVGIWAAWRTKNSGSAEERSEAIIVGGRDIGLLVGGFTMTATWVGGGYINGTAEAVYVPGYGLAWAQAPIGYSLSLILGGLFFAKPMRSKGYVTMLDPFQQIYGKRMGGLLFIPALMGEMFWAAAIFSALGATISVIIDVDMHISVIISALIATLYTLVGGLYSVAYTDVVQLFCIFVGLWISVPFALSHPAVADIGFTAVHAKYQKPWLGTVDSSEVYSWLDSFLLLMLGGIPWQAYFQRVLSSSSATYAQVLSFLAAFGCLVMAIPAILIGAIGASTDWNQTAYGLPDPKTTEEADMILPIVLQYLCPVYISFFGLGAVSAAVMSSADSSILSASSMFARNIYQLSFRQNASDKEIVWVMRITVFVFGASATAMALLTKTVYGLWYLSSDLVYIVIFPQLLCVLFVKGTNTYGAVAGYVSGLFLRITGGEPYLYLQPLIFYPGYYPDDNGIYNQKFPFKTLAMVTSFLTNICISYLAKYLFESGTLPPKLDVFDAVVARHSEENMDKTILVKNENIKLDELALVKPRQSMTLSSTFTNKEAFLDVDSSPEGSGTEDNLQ
Put plainly: CHT choline uptake inhibitors, dose response, cell-based, HEK-293 hCHT, [3H]-choline uptake (AID 652177). The assay is classed as functional.

Assay [20] is described as follows: CTGF mRNA reduction under YAP1 overexpression, dose response, mechanism study for YAP1 pathway inhibitor project, DLD1 cells, RT-qPCR, cherry-pick (AID 1053127). The assay is classed as functional, cell-based. The conditions noted are these: DLD-1.
Assay [21] can be described thus: Artemis endonuclease inhibitor potency, dose response, biochemical, fluorescence intensity (AID 720701).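 Note: Artemis endonuclease enzyme.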 In kind it is functional.
Assay [22] can be described thus: P. falciparum Dd2 growth inhibitors, dose response, SYBR Green, cherry-picked samples (AID 1159567). In kind it is functional, cell-based.
Assay [23] is described as follows: HepG2 cell cytotoxicity, dose response, cytotoxicity control, cherry-picked samples (AID 1159577). The assay is classed as functional, cell-based.
Assay [24] is described as follows: NIH:OVCAR-3 ovarian cancer cell cytotoxicity, dose response, PAX8 inhibitor project, plate reader, dry powder samples (AID 743044). In kind it is functional, cell-based.
The nature of assay [25]: IGROV1 ovarian cancer cell cytotoxicity, dose response, PAX8 inhibitor project, plate reader, dry powder samples (AID 743043). In kind it is functional, cell-based. The conditions noted are these: IGROV-1.
Assay [26] can be described thus: inhibitors of PGC1a acetylation in cells, dose response, cell-based, cherry-picked samples (AID 720514).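 Note: potency may reflect raised or lowered acetylation signal.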 In kind it is functional.
Assay [27] concerns the target C-X-C chemokine receptor type 4 (Homo sapiens, UniProt P61073). The assay can be described thus: SAR analysis of small molecule antagonists of the CXCR6 receptor using a CXCR4 receptor luminescent beta-arrestin counterscreen. In kind it is functional.
The target in assay [28] is C-C chemokine receptor type 6 (Homo sapiens, UniProt P51684). The assay can be described thus: SAR analysis of small molecule antagonists of the CXCR6 receptor using a CCR6 receptor luminescent beta-arrestin counterscreen. The assay is classed as functional.
C-C chemokine receptor type 6, sequence (P51684 whole entry): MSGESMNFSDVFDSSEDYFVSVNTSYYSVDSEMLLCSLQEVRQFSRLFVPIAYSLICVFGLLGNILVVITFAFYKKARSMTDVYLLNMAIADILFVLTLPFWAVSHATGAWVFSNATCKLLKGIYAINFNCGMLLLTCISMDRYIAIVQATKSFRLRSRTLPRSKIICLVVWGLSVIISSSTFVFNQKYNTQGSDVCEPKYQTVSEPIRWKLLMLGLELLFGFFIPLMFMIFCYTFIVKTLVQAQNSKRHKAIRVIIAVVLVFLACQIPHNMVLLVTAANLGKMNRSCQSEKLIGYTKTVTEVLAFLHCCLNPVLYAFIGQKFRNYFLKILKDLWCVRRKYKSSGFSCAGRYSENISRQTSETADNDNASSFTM
Assay [29] is described as follows: CEM21 cell cytotoxicity, dose response, cytotoxicity control, plate reader, dry powder (AID 687026). The assay is classed as functional, cell-based.
Assay [30] in a line: HIV Env cell-cell fusion inhibitors, dose response, HIV entry, plate reader, dry powder (AID 687023). In kind it is functional, cell-based.
Assay [31] is described as follows: Counterscreen for […] of the human trace amine associated receptor 1 (TAAR1): Fluorescence-based cell-based high throughput dose response assay to identify nonselective Ga16 agonists. In kind it is functional.
The target of assay [32] is T3, Trace amine-associated receptor 1 (Homo sapiens, UniProt Q96RJ0).
T3 sequence (Q96RJ0 whole entry): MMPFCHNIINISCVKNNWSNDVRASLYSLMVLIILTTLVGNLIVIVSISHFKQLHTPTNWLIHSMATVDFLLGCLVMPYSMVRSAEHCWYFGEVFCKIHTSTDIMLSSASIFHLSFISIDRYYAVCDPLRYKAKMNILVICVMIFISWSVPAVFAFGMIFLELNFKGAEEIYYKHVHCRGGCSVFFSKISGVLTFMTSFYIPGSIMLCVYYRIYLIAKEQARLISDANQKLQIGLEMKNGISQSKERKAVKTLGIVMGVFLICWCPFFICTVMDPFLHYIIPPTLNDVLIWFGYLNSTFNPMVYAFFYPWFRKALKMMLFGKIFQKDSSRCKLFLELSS
The assay can be described thus: Counterscreen for antagonists of the human trace amine associated receptor 1 (hTAAR1): Fluorescence-based cell-based high throughput dose response assay to identify TAAR1 Agonists. In kind it is functional.

Assay [33] can be described thus: Counterscreen for antagonists of the human trace amine associated receptor 1 (hTAAR1): Fluorescence-based cell-based high throughput dose response assay to identify nonselective Ga16 antagonists. The assay is classed as functional.
Assay [34] addresses T3, Trace amine-associated receptor 1. The assay can be described thus: Fluorescence-based cell-based high throughput dose response assay to identify antagonists of the human trace amine associated receptor 1 (TAAR1). In kind it is functional.
The nature of assay [35]: A2780 ovarian cancer cell cytotoxicity, dose response, cytotoxicity control, plate reader, dry powder samples (AID 743046). In kind it is functional, cell-based.

Paired box protein Pax-8, sequence (Q06710 whole entry): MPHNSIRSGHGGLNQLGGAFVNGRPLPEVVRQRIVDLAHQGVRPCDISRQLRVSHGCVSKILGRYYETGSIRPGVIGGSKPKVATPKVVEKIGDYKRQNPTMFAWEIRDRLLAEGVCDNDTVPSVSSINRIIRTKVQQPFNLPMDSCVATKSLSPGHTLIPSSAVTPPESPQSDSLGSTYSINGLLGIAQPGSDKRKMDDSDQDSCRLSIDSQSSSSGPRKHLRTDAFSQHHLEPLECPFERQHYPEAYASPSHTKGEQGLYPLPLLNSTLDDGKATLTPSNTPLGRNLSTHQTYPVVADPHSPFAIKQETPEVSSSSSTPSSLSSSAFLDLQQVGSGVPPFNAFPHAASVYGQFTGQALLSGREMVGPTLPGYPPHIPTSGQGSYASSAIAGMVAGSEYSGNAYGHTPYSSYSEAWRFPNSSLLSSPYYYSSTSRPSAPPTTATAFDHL
1-phosphatidylinositol 4,5-bisphosphate phosphodiesterase gamma-1, sequence (P19174 whole entry): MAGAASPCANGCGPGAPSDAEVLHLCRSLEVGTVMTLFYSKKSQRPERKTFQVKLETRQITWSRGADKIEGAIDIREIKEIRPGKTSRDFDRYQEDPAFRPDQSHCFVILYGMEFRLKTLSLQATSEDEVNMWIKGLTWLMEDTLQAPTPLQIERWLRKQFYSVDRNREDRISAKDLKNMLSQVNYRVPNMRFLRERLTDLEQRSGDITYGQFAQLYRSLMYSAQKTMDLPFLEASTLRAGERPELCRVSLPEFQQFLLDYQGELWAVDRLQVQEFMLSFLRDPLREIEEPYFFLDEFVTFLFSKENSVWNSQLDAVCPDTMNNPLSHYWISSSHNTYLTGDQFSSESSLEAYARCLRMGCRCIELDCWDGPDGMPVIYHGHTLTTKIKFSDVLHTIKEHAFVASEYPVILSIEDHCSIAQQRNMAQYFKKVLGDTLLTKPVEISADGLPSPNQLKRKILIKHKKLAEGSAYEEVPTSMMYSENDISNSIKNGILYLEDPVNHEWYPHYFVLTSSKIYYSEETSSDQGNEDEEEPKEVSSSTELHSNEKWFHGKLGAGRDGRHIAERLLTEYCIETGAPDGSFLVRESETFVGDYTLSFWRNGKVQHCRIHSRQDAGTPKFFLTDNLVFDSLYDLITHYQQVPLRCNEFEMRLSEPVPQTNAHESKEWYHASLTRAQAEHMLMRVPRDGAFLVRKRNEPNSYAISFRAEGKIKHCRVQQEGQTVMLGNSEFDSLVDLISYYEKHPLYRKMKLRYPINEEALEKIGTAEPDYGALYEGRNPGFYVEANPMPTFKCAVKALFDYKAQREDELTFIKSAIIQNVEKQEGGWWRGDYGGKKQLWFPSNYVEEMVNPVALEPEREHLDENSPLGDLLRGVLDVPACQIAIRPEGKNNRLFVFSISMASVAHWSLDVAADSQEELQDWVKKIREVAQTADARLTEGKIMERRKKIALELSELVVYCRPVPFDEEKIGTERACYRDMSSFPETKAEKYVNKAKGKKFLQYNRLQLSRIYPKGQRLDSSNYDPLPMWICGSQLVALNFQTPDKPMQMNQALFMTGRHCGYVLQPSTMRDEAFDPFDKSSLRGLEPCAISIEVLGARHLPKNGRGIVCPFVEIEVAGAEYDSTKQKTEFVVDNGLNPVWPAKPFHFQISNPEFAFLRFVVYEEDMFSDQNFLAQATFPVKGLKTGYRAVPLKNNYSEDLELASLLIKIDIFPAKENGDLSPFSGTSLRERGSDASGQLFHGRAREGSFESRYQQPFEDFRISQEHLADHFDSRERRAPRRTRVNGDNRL
C-X-C chemokine receptor type 4, sequence (P61073 whole entry): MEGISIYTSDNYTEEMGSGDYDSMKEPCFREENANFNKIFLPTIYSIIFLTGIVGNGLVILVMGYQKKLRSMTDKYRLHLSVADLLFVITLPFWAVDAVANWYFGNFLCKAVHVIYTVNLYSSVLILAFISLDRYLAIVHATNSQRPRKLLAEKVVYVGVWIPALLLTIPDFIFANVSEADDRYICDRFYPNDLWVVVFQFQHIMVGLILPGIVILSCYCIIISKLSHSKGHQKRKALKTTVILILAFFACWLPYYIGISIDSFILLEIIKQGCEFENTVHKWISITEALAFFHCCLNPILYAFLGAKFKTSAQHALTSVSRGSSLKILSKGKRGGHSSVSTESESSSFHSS
Disintegrin and metalloproteinase domain-containing protein 17, sequence (P78536 whole entry, the tested form may be a part): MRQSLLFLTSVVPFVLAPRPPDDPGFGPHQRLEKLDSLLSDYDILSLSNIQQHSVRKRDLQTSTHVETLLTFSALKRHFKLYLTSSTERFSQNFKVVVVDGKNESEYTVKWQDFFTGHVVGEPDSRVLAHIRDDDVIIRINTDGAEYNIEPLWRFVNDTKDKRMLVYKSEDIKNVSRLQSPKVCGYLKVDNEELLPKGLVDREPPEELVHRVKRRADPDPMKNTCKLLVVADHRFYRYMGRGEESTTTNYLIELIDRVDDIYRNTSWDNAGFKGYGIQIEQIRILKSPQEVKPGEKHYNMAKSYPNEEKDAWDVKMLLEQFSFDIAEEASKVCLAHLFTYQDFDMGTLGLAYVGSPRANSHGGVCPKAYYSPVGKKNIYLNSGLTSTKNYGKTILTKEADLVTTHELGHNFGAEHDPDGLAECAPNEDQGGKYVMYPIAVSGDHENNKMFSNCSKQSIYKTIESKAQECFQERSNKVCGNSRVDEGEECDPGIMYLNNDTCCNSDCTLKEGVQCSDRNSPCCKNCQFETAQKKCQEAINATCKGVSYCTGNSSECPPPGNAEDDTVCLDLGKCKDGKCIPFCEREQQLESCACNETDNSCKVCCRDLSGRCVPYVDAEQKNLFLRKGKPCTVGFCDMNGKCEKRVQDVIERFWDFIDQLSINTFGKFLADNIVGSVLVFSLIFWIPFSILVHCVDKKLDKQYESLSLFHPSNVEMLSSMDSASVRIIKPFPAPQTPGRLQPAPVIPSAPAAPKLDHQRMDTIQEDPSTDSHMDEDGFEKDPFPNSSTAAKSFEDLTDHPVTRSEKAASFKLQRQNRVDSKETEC

In the case of `C=CCNC1=C(N2CCN(CC)CC2)C(=O)c2ccccc2C1=O`, the AC50 in [1] was 13.8 µM (active); in assay [2], 29.3 µM (active).

For the compound `CN(C)CC#Cc1cccc(-c2nc(C(=O)NCc3ccc4c(c3)OCO4)cc3c2[C@H](CCO)N([S+]([O-])C(C)(C)C)C3)c1` (some centres undefined), the AC50 in [3] is 1.38 µM (active).

With `O=C(O)CCCN1C(=O)/C(=C\c2ccco2)SC1=S`, the IC50 in assay [4] and in assay [5] was > 123 µM (inactive) in each case.

For `CCSc1nsc(NC(=O)Nc2cccc(OC)c2)n1`, the IC50 in assay [6] and in [7] was > 69.5 µM (inactive) in each case.

In the case of `C[C@@H]1CN([C@H](C)CO)C(=O)CCCn2cc(nn2)CO[C@H]1CN(C)C(=O)Nc1ccc(-c2cccs2)cc1`, the AC50 in assay [8] was < 0.26 µM (active); in assay [9], 1.65 µM (active); in [10], > 70 µM (inactive).

As to `COc1ccc(OC)c(/C=N\NC(=O)c2c(C)nc3cc(C)ccn23)c1`, the EC50 in assay [11] was > 69.6 µM (inactive).

As for `CCN1CCN(c2cc(C)c3cc(NC(=O)c4cc(OC)cc(OC)c4)ccc3n2)CC1`, the AC50 was 11.2 µM (active) in [12] and 17.1 µM (active) in assay [13].

Take `N=c1oc2cc(O)ccc2cc1C(=O)Nc1ccc(Cl)cc1`: the AC50 is > 52 µM (inactive) in [14], 1.95 µM (active) in assay [15], > 52 µM (inactive) in [16] and > 52 µM (inactive) in assay [17].

Take `N#Cc1ccc(-c2ccc3c(c2)[C@@H]2[C@@H](CCN2C(=O)C2CCCCC2)[C@H](CO)N3)cc1`: the AC50 in assay [18] is 46.8 µM (active).

In the case of `COc1ccc(C(=O)NCc2nc(C)cs2)cc1OC1CCN(C(C)C)CC1`, the IC50 in assay [19] was 77.3 µM (inactive).

Regarding `Cc1ccccc1-c1ccc([C@H]2[C@@H](CO)N3CCCCN(S(=O)(=O)Cc4ccccc4)C[C@@H]23)cc1`, the AC50 in assay [20] was > 26 µM (inactive).

Consider `Cc1ccc(C(=O)N/C(=C\c2ccc(-c3cc(Cl)ccc3Cl)o2)C(=O)NCc2cccnc2)cc1`, for which, in assay [21], the IC50 was > 20 µM (inactive).

Take `O=C(Nc1ccc(C(F)(F)F)cc1)N1C[C@@H]2N[C@H](C1)[C@@H]2c1ccc(/C=C/c2ccccc2)cc1`: the AC50 in [22] is 2.93 µM (active); in assay [23], 2.56 µM (active); in assay [8], 21.7 µM (active); in assay [24] it was 36.8 µM (active); in assay [25], 50.8 µM (active); in assay [26], 1.57 µM (active).

On to `COc1ccc(NC(=O)CN2C3CCCC2CC(NC(=O)c2cc(OC)c(OC)c(OC)c2)C3)cc1` (centres undefined), for which the IC50 in assay [27] and in assay [28] was > 79 µM (inactive) in each case.

In the case of `Clc1ccc2c(c1)C(C1=NCCN1)c1ccccc1CS2` (centres undefined), the AC50 was > 70 µM (inactive) in [29]; 42.5 µM (active) and 54 µM (active) in assay [30].

`CN1CCN(c2ncnc3c2c(-c2ccccc2)cn3-c2ccc(F)cc2)CC1`: the EC50 is > 29.9 µM (inactive) in assay [31] and 10 µM (inactive) in [32]. Further, the IC50 in assay [33] is > 29.9 µM (inactive); in [34], 3.17 µM (active).

On to `O=C(C1CCC1)N1CC(=O)N2[C@H](C1)[C@H](c1ccc(C#Cc3cccc(F)c3)cc1)[C@@H]2CO`, for which the AC50 is 10.6 µM (active) in assay [8], 18 µM (active) in assay [35], 9.85 µM (active) in assay [24] and > 70 µM (inactive) in [10].

Broadly, the AC50 is the concentration at which the activity in the assay is half-maximal. The term IC50 denotes the point on the concentration scale where inhibition reaches its midpoint. A word on the EC50: it is the concentration needed to bring the measured effect to its halfway point.

The values are drawn from ChEMBL document CHEMBL1201862, “PubChem BioAssay data set” (2004).
